Measured values reported in paper PMC5741980 (Journal of Experimental Pharmacology, 2017).
Peptide text beside a SMILES is read from it.

What was measured:
[1] = molecular target: T1, human V1 receptors (Homo sapiens, UniProt P37288); details: cited from earlier work; for Ki: read-out: mean binding affinity (Ki) for human V1 receptors, human vascular smooth muscle cells
[2] = test system: V1; details: cited from earlier work; for EC50: read-out: EC50 for V1 activation, recombinant system, functional assay
[3] = test system: rat V1 receptors; details: intracellular calcium mobilization; cited from earlier work
[4] = test system: rat V1 receptors; details: cited from earlier work
[5] = molecular target: T2, human V2 receptors (Homo sapiens, UniProt P30518); assay: Competitive binding assay, [3H]AVP, CHO-K1 cell membrane homogenates
T2 sequence (P30518 whole entry): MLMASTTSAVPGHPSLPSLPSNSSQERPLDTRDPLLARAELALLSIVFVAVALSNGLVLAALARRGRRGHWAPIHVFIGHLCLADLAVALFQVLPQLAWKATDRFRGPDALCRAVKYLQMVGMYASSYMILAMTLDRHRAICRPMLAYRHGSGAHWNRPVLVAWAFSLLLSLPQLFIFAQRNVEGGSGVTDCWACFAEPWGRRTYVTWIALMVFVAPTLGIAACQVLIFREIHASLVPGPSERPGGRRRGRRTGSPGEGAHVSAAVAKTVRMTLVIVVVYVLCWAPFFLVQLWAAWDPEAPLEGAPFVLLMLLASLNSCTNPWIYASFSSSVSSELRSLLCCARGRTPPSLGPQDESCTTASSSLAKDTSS

[6] = molecular target: T1, human V1 receptors; assay: Competitive binding assay, [3H]AVP, CHO-S cell membrane homogenates; details: for affinity (selectivity) for V1 higher than for V2: this study
[7] = molecular target: T1, human V1 receptors; assay: Functional assay, intracellular calcium mobilization; type: cell-based; details: compared with maximal effect of AVP
[8] = test system: V1 activation; details: rat model of portal hypertension, cited from earlier work
[9] = molecular target: T1, human V1 receptors; details: intracellular calcium mobilization; cited from earlier work
[10] = molecular target: T2, human V2 receptors; assay: Functional assay, cAMP production; type: cell-based; details: compared with maximal effect of AVP

T1 sequence (P37288 whole entry): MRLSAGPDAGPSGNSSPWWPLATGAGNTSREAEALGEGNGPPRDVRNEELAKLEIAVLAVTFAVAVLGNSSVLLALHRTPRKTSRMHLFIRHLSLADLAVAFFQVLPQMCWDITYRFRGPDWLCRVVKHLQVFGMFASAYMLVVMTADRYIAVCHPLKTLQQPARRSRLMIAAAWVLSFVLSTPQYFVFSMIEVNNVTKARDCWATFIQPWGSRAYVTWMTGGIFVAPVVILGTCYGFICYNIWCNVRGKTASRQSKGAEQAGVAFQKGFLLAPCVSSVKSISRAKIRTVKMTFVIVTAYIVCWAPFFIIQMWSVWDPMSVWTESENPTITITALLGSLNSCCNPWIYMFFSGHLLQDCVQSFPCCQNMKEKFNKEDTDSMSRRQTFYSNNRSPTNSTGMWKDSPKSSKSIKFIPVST

binding affinity less than that of LVP, V2 receptors ([5]; versus LVP) | affinity (selectivity) for V1 higher than for V2 [6] | binding affinity less than that of LVP, V1 receptors ([6]; versus LVP) | agonist type at V1 receptors [7] | agonist type at V2 receptors [10] | binding affinity less than that of AVP, V2 receptors ([5]; versus AVP) | binding affinity less than that of AVP, V1 receptors ([6]; versus AVP) | Compound | selectivity for V1 receptors higher than for V2 receptors ([1]; Colson et al) | Ki [1] | binding affinity less than that of LVP, human V1 receptors ([1]; versus LVP) | EC50 [2] | EC50 higher than that for LVP ([2]; versus LVP) | mean maximal cell activation at rat V1 receptors [3] | difference in binding versus LVP at rat V1 receptors [4] | mean potency for V1 activation in vasopressor tests [8] | mean potency less than that of vasopressin ([8]; vasopressor tests) | mean maximal cell activation at human V1 receptors [9]
about 700 fold | approximately sixfold | about 600 fold | partial agonist | full agonist |  |  | NCCCC[C@H](NC(=O)[C@@H]1CCCN1C(=O)[C@@H]1CSSC[C@H](NC(=O)CNC(=O)CNC(=O)CN)C(=O)N[C@@H](Cc2ccc(O)cc2)C(=O)N[C@@H](Cc2ccccc2)C(=O)N[C@@H](CCC(N)=O)C(=O)N[C@@H](CC(N)=O)C(=O)N1)C(=O)NCC(N)=O [Terlipressin, N^α-tryglycl-8-lysine-vasopressin] (HELM PEPTIDE1{G.G.G.C.Y.F.Q.N.C.P.K.G.[am]}$PEPTIDE1,PEPTIDE1,4:R3-9:R3$$$V2.0; bridges inferred) | 1.9 fold | 1.23 µM | about 120 fold | 0.148 µM | about 150 fold | 66% | ~700 fold | 9 IU×µmol^−1 | about 66 fold | 48%
 |  |  |  |  |  |  | vasopressin: vasopressin comparator in Bernadich et al rat vasopressor tests; probably AVP |  |  |  |  |  |  |  | 614 IU×µmol^−1 |  | 
 | approximately sixfold |  | full agonist | full agonist | about 12 fold | about twofold | NCCCC[C@H](NC(=O)[C@@H]1CCCN1C(=O)[C@@H]1CSSC[C@H](N)C(=O)N[C@@H](Cc2ccc(O)cc2)C(=O)N[C@@H](Cc2ccccc2)C(=O)N[C@@H](CCC(N)=O)C(=O)N[C@@H](CC(N)=O)C(=O)N1)C(=O)NCC(N)=O [LVP, [Lys8]-vasopressin] |  | 0.01 µM |  | 0.00093 µM |  | 100% |  |  |  | 100%
